Measured values from US9511048B2, “Use of flavone compound for prevention or treatment of obesity” (INDUSTRY-ACADEMIC COOPERATION FOUNDATION, YONSEI UNIVERSITY, priority 2012, dated 2016).

Columns and labels:
3T3-L1 preadipocytes = experiment: Inhibition of lipid production, Oil Red O staining of differentiated adipocytes; assay type: cell-based
Experimental: 3T3-L1 preadipocytes (American Type Culture Collection (ATCC), Manassas, Va., USA) were cultured in DMEM (Dulbecco's Modified Eagle's Medium) supplemented with 10% bovine calf serum, and seeded into 12-well microtiter plates with a density of 10^5 cells/well. Adipocyte differentiation was induced when the preadipocytes reached approximately 100% confluence after growing two more days at 90% confluence. For the experimental groups, induction of adipocyte differentiation was performed in the presence of 5,7-dimethoxyflavone at the concentration of 5, 10, or 20 μM dissolved in the culture medium containing dexamethasone, IBMX (3-isobutyl-1-methylxanthine), and insulin. Afterwards, cells of the experimental groups were maintained continuously in the presence of the same concentrations of 5,7-dimethoxyflavone dissolved in the culture medium containing 10% FBS and 0.1% insulin, replacing the medium every two days. For comparison, control cells were treated the same way as the cells of the experimental groups except for the 5,7-dimethoxyflavone treatment. On day 10 since induction of differentiation, fully differentiated adipocytes were stained with Oil Red O (Sigma, St. Louis, Mo., USA). Stained lipid droplets in the adipocytes were extracted with 100% isopropanol and subjected to the measurement of the absorbance at 500 nm using a spectrophotometer. […]

[1] = test system: C57BL/6 mice with high-fat diet-induced obesity; experiment: Weight-reducing effect in the mouse model of high fat diet-induced obesity; assay type: in vivo; details: 20 mg/kg oral once a day; for food intake versus control groups: eight weeks; for rate of weight gain at the end of eight weeks compared to the control group: p<0.05
Experimental: Three week-old C57BL/6 mice were acclimated for one week and fed with high-fat diet (product #D12492, Research Diet Inc., New Brunswick, N.J., USA) for six weeks to induce obesity. Mice were randomly divided into experimental and control groups, in total of four groups, ten per each group. The experimental groups were orally administered with either 5,7-dimethoxyflavone or 5,7,4′-trimethoxyflavone suspended in 0.25% carboxymethyl cellulose at a dose of 20 mg/kg body weight, once a day at regular hours for eight weeks. For comparison, the control groups were orally administered with 0.25% carboxymethyl cellulose only in the same manner as the experimental groups. Food intake and body weight of each sample mouse were measured every week.

[2] = test system: UCP2 and UCP3 expression in 3T3-L1 adipocytes; experiment: Western blot of thermogenic proteins; assay type: cell-based
Experimental: (§1) It was examined whether the expression of proteins involved in lipid production was reduced by 5,7-dimethoxyflavone treatments in 3T3-L1 adipocytes. 3T3-L1 adipocytes were induced to differentiate in the same manner as described in Example 1-1, and were lysed with a RIPA buffered solution containing a proteinase inhibitor cocktail. Protein samples were boiled for 5 minutes, loaded ([…]) on 10% SDS-PAGE gels and separated by electrophoresis. Separated proteins were transferred to the nitrocellulose membranes and subjected to western blot experiments. Protein-transferred membranes were reacted with primary antibodies, rinsed with TBST three times, 10 minutes each. The dilution ratio of primary antibodies was 1:1000. Membranes reacted with primary antibodies were followed with secondary antibody incubation (anti-rabbit horseradish) for 2 hours at room temperature. The dilution ratio of secondary antibodies was 1:5000. Protein bands were visualized with ECL western blotting detection reagents (Amersham, Tokyo, Japan). Proteins were harvested after eight days and subjected to western blot experiments.
Proteins were harvested from the 3T3-L1 adipocytes differentiated as described in Example 1-1, and subjected to western blot experiments in the same manner as in Example 1-2.

[3] = test system: SREBP1c, C/EBP, FAS and ACC expression in 3T3-L1 adipocytes; experiment: Western blot of lipogenic transcription factors and enzymes; assay type: cell-based; details: proteins harvested after eight days
Experimental: as §1

SMILES | reduction in lipid production compared to the control (3T3-L1 preadipocytes; 20 μM, p<0.01) | food intake versus control groups [1] | rate of weight gain at the end of eight weeks compared to the control group [1] | lipid production in 3T3-L1 adipocytes (3T3-L1 preadipocytes; 5, 10 or 20 μM, day 10 after induction of differentiation, Oil Red O, absorbance 500 nm) | expression of UCP2 and UCP3 [2] | expression of SREBP1c, C/EBP, FAS and ACC [3]
COc1ccc(-c2cc(=O)c3c(OC)cc(OC)cc3o2)cc1 [5,7,4′-trimethoxyflavone] | 28% | no significant difference | significantly lower | – | – | –
COc1cc(OC)c2c(=O)cc(-c3ccccc3)oc2c1 [5,7-dimethoxyflavone] | – | no significant difference | significantly lower | suppresses lipid production in 3T3-L1 adipocytes effectively | upregulated the expression of UCP2 and UCP3 | reduction in the expression
